# According to US12612358B2, “Resorcinol-based compounds and uses thereof” (priority 2020, dated 2026):
# Key:
# PANC13 = assay: CellTiter-Glo cell proliferation, patient-derived PANC13 tumorspheres; format: cell-based; settings: Homo sapiens, 72 h, three days treatment, read-out: IC50 category
# Description: Effects of Compound-5B on proliferation and Id-1 expression in pancreatic cell lines. Compound-5B was next tested for inhibition of cell viability/proliferation in the three pancreatic cancer cell lines and two primary patient-derived cancer cell lines. Compound-5B inhibited cell viability/proliferation of all the cancer cell lines (Table 2). The culturing condition for the pancreatic cell lines was similar to those used in the breast cancer lines, with the exception of the primary patient-derived pancreatic cancer cell lines (PANC9 and PANC13). For determining inhibition of cell proliferation in patient-derived pancreatic cancer cells were cultured in a T75 ultra low attachment flasks with DMEM/F12 media supplemented with B27, penicillin/streptomycin (10,000 u/mL), 50 µg/mL human epidermal growth factor (hEGF), 50 μg/mL human fibroblast growth factor, and 5 μg/mL heparin. Cells were plated in a 384-well plate and incubated for three days to promote the formation of tumorspheres. Cells were then treated with Compound-5B for three days. Cell proliferation of pancreatic cells in the presence of drug was measured using the CellTiter-Glo luminescent Assay and IC50 values were calculated (Table 2). The IC50 and corresponding 95% confidence limits (CL) were calculated using non-linear regression analysis.
# Id-1 = Id-1 expression in MDA-MB231 cells (Western analysis); format: cell-based, human
# Description: Quantitative Western analysis: Cells are cultured and treated in 6-well dishes. After the cells are washed twice with cold PBS, lysis buffer is added. The cells are then lysed by freezing for 10 min at −70° C. and then thawing at ambient temperature. The cell lysate is collected and the protein content is determined by using Bradford reagent. Equal amounts of protein are heated at 90° C. in Laemmli sample buffer which also included β-mercaptoethanol. The samples are then loaded onto a precast SDS-PAGE gel (Bio-Rad Laboratories, Hercules, CA). After which, proteins are then electroblotted onto an Immobilon membrane (Millipore, Billerica, MA) overnight at 2-4° C. The membrane is then blocked for 1 hour with 5% nonfat dry milk which included TBS+Tween. The membranes are then incubated with an anti-Id-1 primary antibody, and then an appropriate secondary antibody was used. Blots are incubated for 45 min and then washed 4 times with TBS+Tween for 15 min each. […]
# Effects of Compound-5B on breast cancer cell proliferation, Id-1 expression and invasion in culture. […] The ability of the cells to migrate and invade in modified Boyden chambers was determined. The percentage relative invasion was calculated as the effect on treated cells/vehicle cells×100. […]
# MDA-MB231 cells = assay: MDA-MB231 mammary fat pad primary tumor model in athymic nu/nu mice; format: in vivo, mouse; settings: MDA-MB231, 1 mg/kg i.p. once daily, 6 days a week
# Description: Antitumor activity of Compound-5B in vivo in breast cancer. Based on the activity of Compound-5B in culture, the antitumor activity of Compound-5B was tested in vivo in two models of breast cancer (FIG. 4). Compound-5B produced a potent inhibition of Id-1 expression in human MDA-MB231 cells (FIG. 1A). We also determined whether it produced a similar effect in mouse 4T1 breast cancer cells. This cell line is commonly used for seeding a lung metastatic model in mice. […] LC=loading control (FIG. 4A). […] Lung metastases were generated in BALB/c mice by tail vein injection of 4×10^4 4T1 cells. Two days after the injection, the tumor bearing mice were injected i.p. once a day, six days a week, with vehicle or Compound 5B three weeks. Lung metastasis % (total metastatic foci in treated/vehicle×100) was evaluated (FIG. 4B). […] Animals with established tumors (average volume of 100 mm^3) were randomized and treated once daily, 6 days a week, with i.p., injections of vehicle, or 1 mg/kg Compound-5B, tumors were measured once weekly by an operator blinded to the treatment groups. Changes in tumor volume (mm^3) were calculated as (length×width2)/2. *indicates statistically significant differences between vehicle and Compound-5B (p<0.05, Two-way ANOVA repeated measures, and Tukey's multiple comparisons test).
# PANC-1 tumors = assay: PANC-1 subcutaneous xenograft in athymic nu/nu mice; format: in vivo
# CYP2C8 = molecular target: T1, CYP2C8 (Homo sapiens, UniProt P10632); assay: CYP2C8 inhibition; format: in vitro ADME; settings: 10 μM
# T1 construct: purchased Eurofins
# Description: Evaluating ADME of Compound-5B in vitro. It is important to evaluate ADME first in culture as it allows for the selection of the best candidate for PK analysis in vivo. ADME analysis of Compound-5B was performed by Eurofins.
# T1 sequence (P10632 whole entry): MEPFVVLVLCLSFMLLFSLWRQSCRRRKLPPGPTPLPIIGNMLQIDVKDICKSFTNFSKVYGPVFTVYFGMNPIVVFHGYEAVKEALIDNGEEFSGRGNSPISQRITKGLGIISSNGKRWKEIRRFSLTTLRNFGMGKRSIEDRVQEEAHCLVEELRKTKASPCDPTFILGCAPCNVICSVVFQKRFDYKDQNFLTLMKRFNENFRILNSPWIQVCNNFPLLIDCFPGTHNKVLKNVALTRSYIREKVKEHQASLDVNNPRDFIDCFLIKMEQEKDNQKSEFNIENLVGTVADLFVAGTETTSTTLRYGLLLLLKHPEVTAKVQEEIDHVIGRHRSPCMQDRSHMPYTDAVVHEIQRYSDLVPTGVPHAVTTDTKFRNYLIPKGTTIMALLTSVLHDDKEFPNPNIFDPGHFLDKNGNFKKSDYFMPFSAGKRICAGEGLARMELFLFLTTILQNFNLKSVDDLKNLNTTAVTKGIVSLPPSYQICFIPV
smiles,measurement,setting,value
"CCCCCCC(C)(C)c1cc(O)c(C(=O)Nc2ccccc2)c(O)c1 [Compound 5B, 2,6-dihydroxy-4-(2-methyloctan-2-yl)-N-phenylbenzamide]",IC50,PANC13,< 0.5 µM
same,inhibition of Id-1 expression,Id-1,significant potency
same,primary tumor growth,MDA-MB231 cells,able to inhibit primary tumor growth
same,weight loss (metric of drug toxicity),"PANC-1 tumors; PANC-1 tumor mice, Compound-5B 10 mg/kg i.p. daily, gemcitabine 50 mg/kg i.p. three times a week",no significant weight loss
same,growth of PANC-1 tumors,"PANC-1 tumors; athymic nu/nu mice, 10 mg/kg i.p. once daily",reduced the growth of PANC-1 tumors as effectively as gemcitabine
same,inhibition of CYP2C8,CYP2C8,some inhibition
